Results taken from PubChem BioAssay AID1259408 (Genetic Toxicology Data Bank (GENE-TOX), 2018).
Activity calls are given as the source filed them. No rule for the calls is given here.

Test system: GENE-TOX genotoxicity assays, various organisms and cells
Experiment: GENE-TOX mutagenicity studies
Settings: for call: Assay Type: In vivo carcinogenicity studies
[1] = Species/Cell Type: Chinese hamster lung (V79) cells, Assay Type: Forward gene mutation at the HPRT or ouabain locus, Assay Code: V79+, Evaluation Type: Evaluation A (Pre-1980)
[2] = Species/Cell Type: Drosophila melanogaster, Assay Type: Sex-linked recessive lethal gene mutation, Assay Code: SRL+, Evaluation Type: Evaluation A (Pre-1980)
[3] = Species/Cell Type: Nonhuman, Assay Code: CCG+, Evaluation Type: Evaluation A (Pre-1980)
[4] = Species/Cell Type: Salmonella typhimurium (one or more of the five standard strains: TA98, TA100, TA1535, TA1537, and TA1538), Assay Type: Histidine reverse gene mutation, Ames assay, Assay Code: SAL+*, Activation: With metabolic activation, Evaluation Type: Evaluation A (Pre-1980)
[5] = Species/Cell Type: Salmonella typhimurium, Assay Type: Forward and reverse gene mutation, body fluid assay, Assay Code: BFU+, Evaluation Type: Evaluation A (Pre-1980)

CN(C)N=O
mutagenic call (Species/Cell Type: Arabidopsis species, Assay Type: Gene mutation, Assay Code: ARM+D, Dose Response: With dose response, Evaluation Type: Evaluation A (Pre-1980)): active; positive | mutagenic call [1]: active; positive | mutagenic call (Species/Cell Type: Chinese hamster ovary (CHO) cells, Assay Type: Forward gene mutation at the HPRT locus, Assay Code: CHO+*, Activation: With metabolic activation, Evaluation Type: Evaluation B (Post-1980)): active; positive | mutagenic call (Species/Cell Type: Chinese hamster ovary (CHO) cells, Assay Type: Forward gene mutation at the HPRT locus, Assay Code: CHO+D, Dose Response: With dose response, Evaluation Type: Evaluation A (Pre-1980)): active; positive | mutagenic call [2]: active; positive | mutagenic call (Species/Cell Type: Drosophila melanogaster, Sex: Male, Assay Type: Heritable translocation test, chromosome aberrations, Assay Code: DHT+, Evaluation Type: Evaluation A (Pre-1980)): active; positive | mutagenic call (Species/Cell Type: Escherichia coli WP2, Assay Type: Tryptophan reverse gene mutation, Assay Code: WP2+*, Activation: With metabolic activation, Evaluation Type: Evaluation A (Pre-1980)): active; positive | mutagenic call (Species/Cell Type: Escherichia coli WP2 UVRA, Assay Type: Tryptophan reverse gene mutation, Assay Code: WPU+*, Activation: With metabolic activation, Evaluation Type: Evaluation A (Pre-1980)): active; positive | mutagenic call (Species/Cell Type: Escherichia coli polA (W3110 vs P3478), Assay Type: Rec-assay, DNA effects (bacterial DNA repair), Assay Code: RE2+, Evaluation Type: Evaluation A (Pre-1980)): active; positive | mutagenic call (Species/Cell Type: Escherichia coli polA (W3119 vs P3478), Assay Type: Rec-assay, DNA effects (bacterial DNA repair), Assay Code: RE1T, Evaluation Type: Evaluation A (Pre-1980)): no conclusion | mutagenic call (Species/Cell Type: Fischer rat embryo (RLV/1706) cells, Assay Type: Cell transformation, viral enhanced, Assay Code: CTRT, Evaluation Type: Evaluation A (Pre-1980)): no conclusion | mutagenic call (Species/Cell Type: Human diploid fibroblasts, Assay Type: Unscheduled DNA synthesis (UDS) in vitro, DNA effects, Assay Code: UDH+D, Dose Response: With dose response, Evaluation Type: Evaluation A (Pre-1980)): active; positive | mutagenic call (Species/Cell Type: Human lymphocytes, Assay Type: Sister-chromatid exchange (SCE) in vitro, Assay Code: SCL+D*, Activation: With metabolic activation, Dose Response: With dose response, Evaluation Type: Evaluation B (Post-1980)): active; positive | mutagenic call (Species/Cell Type: Human, Assay Type: Sister-chromatid exchange (SCE) in vitro, Assay Code: SC1+D*, Activation: With metabolic activation, Dose Response: With dose response, Evaluation Type: Evaluation B (Post-1980)): active; positive | mutagenic call (Species/Cell Type: Mammalian germ cells, Sex: Male, Assay Type: Chromosome aberrations in vivo, Assay Code: CY9-, Evaluation Type: Evaluation A (Pre-1980)): inactive; negative | mutagenic call (Species/Cell Type: Mammalian polychromatic erythrocytes, Assay Type: Micronucleus test, chromosome aberrations, Assay Code: MNT+, Evaluation Type: Evaluation A (Pre-1980)): active; positive | mutagenic call (Species/Cell Type: Mouse germ cells, Sex: Male, Assay Type: Unscheduled DNA synthesis (UDS) in vivo, DNA effects, Assay Code: UDT-, Evaluation Type: Evaluation A (Pre-1980)): inactive; negative | mutagenic call (Species/Cell Type: Mouse lymphoma (L5178Y) cells, Assay Type: Forward gene mutation at the thymidine kinase (TK) locus, chromosome aberrations, Assay Code: L51+*, Activation: With metabolic activation, Evaluation Type: Evaluation A (Pre-1980)): active; positive | mutagenic call (Species/Cell Type: Mouse, Sex: Female, Assay Type: Spot test, gene mutation, Assay Code: MSTT, Evaluation Type: Evaluation A (Pre-1980)): no conclusion | mutagenic call (Species/Cell Type: Mouse, Sex: Male, Assay Type: Sperm morphology, Assay Code: SPI-, Evaluation Type: Evaluation A (Pre-1980)): inactive; negative | mutagenic call (Species/Cell Type: Neurospora crassa, Assay Type: Forward gene mutation, Assay Code: NEF+*, Activation: With metabolic activation, Evaluation Type: Evaluation A (Pre-1980)): active; positive | mutagenic call (Species/Cell Type: Neurospora crassa, Assay Type: Reverse gene mutation, Assay Code: NER+, Evaluation Type: Evaluation A (Pre-1980)): active; positive | mutagenic call (Species/Cell Type: Nonhuman, Assay Type: Chromosome aberrations in vitro, Assay Code: CY&+D*, Activation: With metabolic activation, Dose Response: With dose response, Evaluation Type: Evaluation A (Pre-1980)): active; positive | call [3]: active; positive | mutagenic call (Species/Cell Type: Nonhuman, Assay Type: Sister-chromatid exchange (SCE) in vitro, Assay Code: SC2+D, Dose Response: With dose response, Evaluation Type: Evaluation A (Pre-1980)): active; positive | mutagenic call (Species/Cell Type: Nonhuman, Assay Type: Sister-chromatid exchange (SCE) in vivo, Assay Code: SC3+D, Dose Response: With dose response, Evaluation Type: Evaluation A (Pre-1980)): active; positive | mutagenic call (Species/Cell Type: Rat primary hepatocytes, Assay Type: Unscheduled DNA synthesis (UDS) in vitro, DNA effects, Assay Code: UDP+, Evaluation Type: Evaluation A (Pre-1980)): active; positive | mutagenic call (Species/Cell Type: Rodents, Sex: Male, Assay Type: Dominant lethal test, Assay Code: DLTT, Evaluation Type: Evaluation A (Pre-1980)): no conclusion | mutagenic call (Species/Cell Type: Saccharomyces cerevisiae, Assay Type: Forward gene mutation, Assay Code: YEF+*, Activation: With metabolic activation, Evaluation Type: Evaluation A (Pre-1980)): active; positive | mutagenic call (Species/Cell Type: Saccharomyces cerevisiae, Assay Type: Mitotic recombination or gene conversion, Assay Code: YEC+*, Activation: With metabolic activation, Evaluation Type: Evaluation A (Pre-1980)): active; positive | mutagenic call (Species/Cell Type: Saccharomyces cerevisiae, Assay Type: Mitotic recombination or gene conversion, Assay Code: YEH+, Evaluation Type: Evaluation A (Pre-1980)): active; positive | mutagenic call [4]: active; positive | mutagenic call (Species/Cell Type: Salmonella typhimurium, Escherichia coli, Neurospora crassa, Saccharomyces cerevisiae, Chinese hamster ovary (CHO) and l, Assay Type: Forward and reverse gene mutation, chromosome aberrations, mitotic recombination and gene conversion, DNA effects, host-, Assay Code: HM4+, Evaluation Type: Evaluation A (Pre-1980)): active; positive | mutagenic call [5]: active; positive | mutagenic call (Species/Cell Type: Schizosaccharomyces pombe, Assay Type: Forward gene mutation, Assay Code: YEY+*, Activation: With metabolic activation, Evaluation Type: Evaluation A (Pre-1980)): active; positive | mutagenic call (Species/Cell Type: Syrian hamster embryo (SHE) cells, Assay Type: Cell transformation, clonal assay, Assay Code: CTCT, Evaluation Type: Evaluation A (Pre-1980)): no conclusion

CCCCN(CC(C)=O)N=O
mutagenic call [4]: active; positive

C[CH2][Hg][N](c1ccccc1)S(=O)(=O)c1ccc(C)cc1
mutagenic call [2]: active; positive

O=P(O)(O)Oc1c(Br)cc(Br)cc1-c1cc(Br)cc(Br)c1O
mutagenic call (Species/Cell Type: Mammalian polychromatic erythrocytes, Assay Type: Micronucleus test, chromosome aberrations, Assay Code: MNTT, Evaluation Type: Evaluation B (Post-1980)): no conclusion

[Cl][Nb]([Cl])([Cl])([Cl])[Cl]
mutagenic call (Species/Cell Type: Bacillus subtilis (H17 vs M45), Assay Type: Rec-assay, spot test, DNA effects (bacterial DNA repair), Assay Code: REW-, Evaluation Type: Evaluation A (Pre-1980)): inactive; negative

BrCc1c2ccccc2cc2c1ccc1ccccc12
mutagenic call [1]: active; positive | mutagenic call [2]: active; positive | mutagenic call (Species/Cell Type: Escherichia coli WP2, Assay Type: Tryptophan reverse gene mutation, Assay Code: WP2+D, Dose Response: With dose response, Evaluation Type: Evaluation A (Pre-1980)): active; positive | mutagenic call (Species/Cell Type: Escherichia coli WP2 UVRA, Assay Type: Tryptophan reverse gene mutation, Assay Code: WPU+D, Dose Response: With dose response, Evaluation Type: Evaluation A (Pre-1980)): active; positive | mutagenic call (Species/Cell Type: Human diploid fibroblasts, Assay Type: Unscheduled DNA synthesis (UDS) in vitro, DNA effects, Assay Code: UDH+, Evaluation Type: Evaluation A (Pre-1980)): active; positive | call [3]: active; positive | mutagenic call (Species/Cell Type: Nonhuman, Assay Type: Sister-chromatid exchange (SCE) in vitro, Assay Code: SC2+D, Dose Response: With dose response, Evaluation Type: Evaluation B (Post-1980)): active; positive | mutagenic call (Species/Cell Type: Syrian hamster embryo (SHE) cells, Assay Type: Cell transformation, clonal assay, Assay Code: CTC-, Evaluation Type: Evaluation A (Pre-1980)): inactive; negative

O=C1c2cc(O)cc(O)c2C(=O)c2c1cc1c(c2O)[C@@H]2C=CO[C@@H]2O1
mutagenic call [4]: active; positive

CC(C)N(C(=O)SCC(Cl)=C(Cl)Cl)C(C)C
mutagenic call [4]: active; positive

C/[N+]([O-])=N/CO
mutagenic call [1]: active; positive | mutagenic call [2]: active; positive | call [3]: active; positive | mutagenic call [5]: active; positive | mutagenic call (Species/Cell Type: Syrian hamster embryo (SHE) cells, Assay Type: Cell transformation, clonal assay, Assay Code: CTC+, Evaluation Type: Evaluation A (Pre-1980)): active; positive

CC(C)CN(N=O)/C(N)=N/[N+](=O)[O-]
mutagenic call (Species/Cell Type: Arabidopsis species, Assay Type: Gene mutation, Assay Code: ARM+, Evaluation Type: Evaluation A (Pre-1980)): active; positive | mutagenic call (Species/Cell Type: Salmonella typhimurium (one or more of the five standard strains: TA98, TA100, TA1535, TA1537, and TA1538), Assay Type: Histidine reverse gene mutation, Ames assay, Assay Code: SAL+, Evaluation Type: Evaluation A (Pre-1980)): active; positive

OC1C=Cc2c(cc3ccc4cccc5ccc2c3c45)C1O (stereo not drawn)
mutagenic call [1]: active; positive

COC[CH2][Hg][Cl]
mutagenic call (Species/Cell Type: Drosophila melanogaster, Assay Type: Aneuploidy, sex chromosome gain, chromosome aberrations, Assay Code: DAG-F-M, Evaluation Type: Evaluation A (Pre-1980)): inactive; negative | mutagenic call (Species/Cell Type: Drosophila melanogaster, Assay Type: Aneuploidy, whole sex chromosome loss, chromosome aberrations, Assay Code: DAC-M-F, Evaluation Type: Evaluation A (Pre-1980)): inactive; negative

CCNc1nc(NC(C)(C)C)nc(OC)n1
mutagenic call (Species/Cell Type: Saccharomyces cerevisiae, Assay Type: Mitotic recombination or gene conversion, Assay Code: YEC-, Evaluation Type: Evaluation A (Pre-1980)): inactive; negative

Nc1cc([N+](=O)[O-])ccc1C(=O)O
call (Species/Cell Type: Nonhuman, Assay Code: CCG-, Evaluation Type: Evaluation A (Pre-1980)): inactive; negative

O=Nc1c([O-])ccc2cc(S(=O)(=O)[O-])ccc12.O=Nc1c([O-])ccc2cc(S(=O)(=O)[O-])ccc12.O=Nc1c([O-])ccc2cc(S(=O)(=O)[O-])ccc12.[Fe+3].[Na+].[Na+].[Na+]
mutagenic call (Species/Cell Type: Bacillus subtilis (H17 vs M45), Assay Type: Rec-assay, spot test, DNA effects (bacterial DNA repair), Assay Code: REWT, Evaluation Type: Evaluation A (Pre-1980)): no conclusion
